For data set [1] the following is noted: male, Sprague Dawley, rat, in vivo, po, 5 mg/kg.
Description: A 25 μl aliquot of sample was subjected to protein precipitation using 150 μl of acetonitrile containing 100 ng/ml of internal standard (glyburide). After vortex and centrifugation for 5 minutes at 4000 revolutions per minute, 125 μl of supernatant was transferred to a 1 ml 96-well plate, followed by the addition of 50 μl of water. The analysis was conducted by using HPLC separation coupled with mass spectrometric detection.
Agilent 1100 (Santa Clara, CA) was used for LC separations coupled with CTC PAL (Zwingen, Switzerland). […] A Sciex API 4000 Q Trap mass spectrometer equipped with a Turbo Ionspray interface from Applied Biosystems (Framingham, MA) was used for detection. The instrument was operated in the positive ion MRM mode employing nitrogen as a collision gas. […] Data were acquired and processed by Sciex Analyst 1.5.2 software.
Standard regression and back-calculation of unknown concentrations were performed by Thermo Watson 7.4 software purchased from Thermo Fisher Scientific, Inc. (Philadelphia, PA). Quantification of the parent compound in rat blood was based on at least 5-point calibration curve. […] The bias of all calibration standards and quality control samples was within the acceptance criteria of ± 30%.
In another data set the target is T1, TRPC4 (Homo sapiens, UniProt Q9UBN4).
T1 construct: host or cells: Flp-In T-REx-293 (called HEK293T with Dox-inducible TRPC4)
T1 sequence (Q9UBN4 1-977): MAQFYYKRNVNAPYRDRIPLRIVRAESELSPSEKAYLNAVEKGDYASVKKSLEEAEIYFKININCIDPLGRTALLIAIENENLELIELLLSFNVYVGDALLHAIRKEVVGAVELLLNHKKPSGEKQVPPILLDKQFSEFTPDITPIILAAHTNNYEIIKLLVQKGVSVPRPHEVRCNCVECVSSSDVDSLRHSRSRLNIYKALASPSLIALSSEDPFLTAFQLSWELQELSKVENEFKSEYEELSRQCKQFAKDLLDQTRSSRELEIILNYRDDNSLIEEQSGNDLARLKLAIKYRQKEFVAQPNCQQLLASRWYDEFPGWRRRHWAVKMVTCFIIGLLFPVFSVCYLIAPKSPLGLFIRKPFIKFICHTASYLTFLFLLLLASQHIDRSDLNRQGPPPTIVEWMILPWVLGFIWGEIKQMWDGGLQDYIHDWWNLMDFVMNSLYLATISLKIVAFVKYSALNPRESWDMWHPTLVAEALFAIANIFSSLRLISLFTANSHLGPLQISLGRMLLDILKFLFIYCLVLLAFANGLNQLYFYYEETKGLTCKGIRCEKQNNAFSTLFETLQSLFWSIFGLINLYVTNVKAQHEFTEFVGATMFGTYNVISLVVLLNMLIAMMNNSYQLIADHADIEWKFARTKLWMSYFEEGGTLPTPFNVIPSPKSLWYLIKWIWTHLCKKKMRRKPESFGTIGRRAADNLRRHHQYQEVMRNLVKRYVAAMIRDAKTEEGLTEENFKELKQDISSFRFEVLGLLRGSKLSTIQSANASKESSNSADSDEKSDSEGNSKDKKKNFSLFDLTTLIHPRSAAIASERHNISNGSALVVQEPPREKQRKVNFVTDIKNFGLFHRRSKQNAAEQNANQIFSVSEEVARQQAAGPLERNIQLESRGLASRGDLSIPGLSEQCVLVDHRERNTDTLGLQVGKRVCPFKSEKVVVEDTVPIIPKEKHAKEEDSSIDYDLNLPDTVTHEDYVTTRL
Description: Electrophysiology (QPatch-HT automated patch clamp, voltage ramp). The format is cell-based. To be noted: TRPC4 expressing HEK293T cells. The method, then:
TRPC4 currents were recorded from HEK293T cells with Dox-inducible TRPC4 on the QPatch-HT automated patch clamp system at room temperature (21–24°C) (Biolin Scientific, Stockholm, Sweden). The internal solution contained (in mM): 150 Cs-aspartate, 2 MgCl2, 0.36 CaCl2, 1 EGTA, 4 MgATP, 0.3 NaGTP and 10 HEPES, pH = 7.20 with CsOH (calculated free [Ca^2+] = 100 nM using WebMaxChelator http://www.stanford.edu/~cpatton/maxc.html, assuming an ionic strength of 0.16). The standard external solution contained (in mM): 150 NaCl, 4 KCl, 2 CaCl2, 1 MgCl2, 10 HEPES and 10 D-glucose (pH = 7.40) with NaOH. Currents were elicited by a voltage ramp protocol consisting of a 50 ms step to −100 mV, followed by a 200 ms ramp to +100 mV and 10 ms at +100 mV. Voltage ramps were applied every 10 s from a holding potential of 0 mV. Results were expressed as means ± S.E.M.

Bounds are passed on as bounds.

As for `CC(C)[C@@]12C[C@@H](O)[C@@](C)(O1)[C@@H]1CC[C@@H](C)[C@H]1[C@@H]2OC(=O)/C=C/c1ccccc1` [Englerin B], the “blood levels of englerin B after dosing englerin A” value in data set [1] is > 50 nM. Besides, the induced current entry at TRPC4 is recorded as “did not induce current”.
